Series [1] relates to human tumour cell lines HL-60, HSC-2, HSC-3, HSC-4. The series is described as follows: Cytotoxicity, average over the four human tumour cell lines. It counts as cell-based. To be noted: for CC50: Homo sapiens, average of HL-60, HSC-2, HSC-3, HSC-4, read-out: AVE. CC50, human tumour cell lines; for AVE SI: average of the four SI values; for PSE (potency-selectivity expression): product of reciprocal of average CC50 (neoplastic cells) and average SI times 100. How it is done: (§1) Human promyelocytic leukemia [HL-60 (RCB3683)] (purchased from Riken Cell Bank, Tsukuba, Japan) was cultured at 37 °C in RPMI1640 medium (Fujifilm Wako Pure Chemical Co., Osaka, Japan) supplemented with 10% heat (56 °C, 30 min) inactivated FBS (Sigma-Aldrich Inc. St. Louis, MO, USA), 100 U/mL penicillin G, and 100 µg/mL streptomycin sulfate in a humidified 5% CO2 incubator (MCO-170 AICUVD-P, Panasonic Healthcare Co., Ltd., Gunma, Japan). Human oral squamous cell carcinoma (OSCC) cell lines derived from tongue [HSC-2 (RCB1945), HSC-3 (RCB1975), HSC-4 (RCB1902)] (Riken Cell Bank), and human normal oral cells (gingival fibroblasts, HGF; pulp cell, HPC; periodontal ligament fibroblast, HPLF), established from the first premolar extracted tooth in the lower jaw and periodontal tissues of a child, according to the guidelines of Meikai University Ethic Committee (No. A0808), were cultured in DMEM medium (Fujifilm Wako Pure Chemical Co.) supplemented with 10% FBS and antibiotics. The compounds in Series 2–4 were evaluated against HL-60, HSC-2, HSC-3, HSC-4, HGF, HPC, and HPLF cells based on a literature procedure, as described previously. In brief, near confluent cells were incubated in triplicate for 48 h at 37 °C with different concentrations ([…], 6.3, 12.5, 25, 50, 100 µM) of the compounds; then, viable cell numbers were measured using the MTT method. From the dose–response curve, a 50% cytotoxic concentration (CC50) was determined. All samples were dissolved in dimethylsulfoxide (DMSO). The toxicity of DMSO alone was calculated and subtracted. The CC50 values were determined from dose–response curves.

The test system of series [2] is human oral squamous cell carcinoma HSC-4 cells. The series can be described thus: Cytotoxicity, MTT method, HSC-4 cells. To be noted: for CC50: Homo sapiens, HSC-4, 48 h, MTT, mean ± SD, read-out: CC50 HSC-4; for SI (selectivity index) HSC-4: average CC50 non-malignant cells / CC50 HSC-4. In kind it is cell-based. How it is done:
as §1
Background: Formazan colour is commonly taken as a measure of viable cells.

Series [3] can be described thus: Cytotoxicity, MTT method, HGF non-malignant cells. In kind it is cell-based, human. The conditions noted are these: human, gingival fibroblasts (HGF), non-malignant, mean ± SD. How it is done: as §1
Series [4] deals with human oral squamous cell carcinoma HSC-3 cells. The series can be described thus: Cytotoxicity, MTT method, HSC-3 cells. It counts as cell-based. The conditions noted are these: for CC50: Homo sapiens, HSC-3, 48 h, MTT, mean ± SD, read-out: CC50 HSC-3; for SI (selectivity index) HSC-3: average CC50 non-malignant cells / CC50 HSC-3. How it is done: as §1
Series [5] is described as follows: Cytotoxicity, average over the three human normal cells. In kind it is cell-based. The conditions noted are these: human, average of HGF, HPC, HPLF; read-out: AVE CC50, human normal cells. How it is done:
as §1

The subject of series [6] is human normal cells HGF, HPC, HPLF. The series is described as above. It counts as cell-based. To be noted: average of HGF, read-out: AVE CC50, human normal cells. How it is done:
as §1

Series [7] has as its system human promyelocytic leukemia HL-60 cells. The series can be described thus: Cytotoxicity, MTT method, HL-60 cells. It counts as cell-based. To be noted: for CC50: Homo sapiens, HL-60, 48 h, MTT, mean ± SD, read-out: CC50 HL-60; for SI (selectivity index) HL-60: average CC50 non-malignant cells / CC50 HL-60. How it is done: as §1
Series [8] in a line: Cytotoxicity, MTT method, HPC non-malignant cells. It counts as cell-based, human. The conditions noted are these: human, pulp cells (HPC), non-malignant, mean ± SD. How it is done:
as §1

A short description of series [9]: Cytotoxicity, MTT method, HPLF non-malignant cells. It counts as cell-based, human. The conditions noted are these: human, periodontal ligament fibroblasts (HPLF), non-malignant, mean ± SD. How it is done: as §1
Series [10] has as its system human oral squamous cell carcinoma HSC-2 cells. The series can be described thus: Cytotoxicity, MTT method, HSC-2 cells. In kind it is cell-based. To be noted: for CC50: Homo sapiens, HSC-2, 48 h, MTT, mean ± SD, read-out: CC50 HSC-2; for SI (selectivity index) HSC-2: average CC50 non-malignant cells / CC50 HSC-2. How it is done:
as §1

The text below walks through data of PMC10821124, “Dimeric 3,5-Bis(benzylidene)-4-piperidones: Tumor-Selective Cytotoxicity and Structure-Activity Relationships” (Medicines, 2024).

One may read the CC50 as the concentration giving 50% cytotoxicity.

Regarding `O=C1/C(=C/c2ccc(Cl)cc2)CN(C(=O)C(=O)N2C/C(=C\c3ccc(Cl)cc3)C(=O)/C(=C/c3ccc(Cl)cc3)C2)C/C1=C\c1ccc(Cl)cc1` [Compound 2c], the CC50 in [1] was 6.45 µM; in [2] it was 6.7 ± 3 µM; in [4], 11 ± 1.1 µM; in series [6], 74.3 µM; in series [7] it was 4.4 ± 0.17 µM; in [10], 3.7 ± 0.6 µM. Besides, in series [1], the “AVE SI” value amounted to 13.7. In series [2], the “SI (selectivity index) HSC-4” value is recorded as 11.1. Further, the half-maximal cytotoxic concentration (CC50) at 48 h is 56 ± 6.7 µM in [3], over 50 µM in series [5], 78 ± 37 µM in series [8] and 89 ± 9.3 µM in [9]. For the same molecule, the “SI (selectivity index) HSC-3” value in series [4] worked out at 6.76. The “SI (selectivity index) HL-60” value in [7] turned out to be 16.9. The “SI (selectivity index) HSC-2” value in [10] was determined as 20.1.
For the molecule `COc1ccc(/C=C2\CN(C(=O)C(=O)N3C/C(=C\c4ccc(OC)cc4)C(=O)/C(=C/c4ccc(OC)cc4)C3)C/C(=C\c3ccc(OC)cc3)C2=O)cc1` [Compound 2h], the CC50 is 10.4 µM in series [1]; 9.6 ± 0.17 µM in [2]; 9.2 ± 4.7 µM in [4]; over 81.7 µM in series [6]; 15 ± 0.42 µM in [7]; 7.8 ± 1.3 µM in series [10]. The “AVE SI” value in [1] is over 8.34. In addition, the “SI (selectivity index) HSC-4” value in series [2] is recorded as over 8.51. Besides, the CC50 at 48 h in [3] was 82 ± 14 µM; in [5], over 50 µM; in series [8] it was 63 ± 8 µM; in series [9], over 100 µM. Besides, the “SI (selectivity index) HSC-3” value in series [4] was over 8.88. Further, the “SI (selectivity index) HL-60” value in series [7] was over 5.45. In addition, in [10], the “SI (selectivity index) HSC-2” value is listed as over 10.5.
For `CN(C)c1ccc(/C=C2\CN(C(=O)C(=O)N3C/C(=C\c4ccc(N(C)C)cc4)C(=O)/C(=C/c4ccc(N(C)C)cc4)C3)C/C(=C\c3ccc(N(C)C)cc3)C2=O)cc1` [Compound 2i], the CC50 in [1], in series [2], in series [4], in series [6], in series [7] and in series [10] was over 100 µM each time. Besides, in series [1], the “AVE SI” value is about 1.00. Further, the “SI (selectivity index) HSC-4” value in [2] is given as about 1.00. Further, the CC50 at 48 h in series [3] is over 100 µM; in series [5], over 50 µM; in series [8] it was over 100 µM; in series [9], over 100 µM. The “SI (selectivity index) HSC-3” value in series [4] is on record as about 1.00. Further, the “SI (selectivity index) HL-60” value in [7] is given as about 1.00. Moreover, the “SI (selectivity index) HSC-2” value in series [10] was about 1.00.
On to `O=C1/C(=C/c2ccc(Cl)c(Cl)c2)CN(C(=O)CC(=O)N2C/C(=C\c3ccc(Cl)c(Cl)c3)C(=O)/C(=C/c3ccc(Cl)c(Cl)c3)C2)C/C1=C\c1ccc(Cl)c(Cl)c1` [Compound 3d], for which the CC50 in series [1] is 73.3 µM; in series [2], 79 ± 5.5 µM; in series [4], 76 ± 13 µM; in series [6], over 100 µM; in series [7], 65 ± 6.1 µM; in [10] it was 73 ± 3.5 µM. Besides, the “AVE SI” value in series [1] was over 1.38. In addition, in series [2], the “SI (selectivity index) HSC-4” value is recorded as over 1.27. Further, the CC50 at 48 h is over 100 µM in [3], over 50 µM in series [5], over 100 µM in [8] and over 100 µM in series [9]. Besides, the “SI (selectivity index) HSC-3” value in [4] is reported as over 1.32. Also, the “SI (selectivity index) HL-60” value in series [7] is recorded as over 1.54. Further, the “SI (selectivity index) HSC-2” value in series [10] is given as over 1.37.
As for `COc1cc(/C=C2\CN(C(=O)CC(=O)N3C/C(=C\c4cc(OC)c(OC)c(OC)c4)C(=O)/C(=C/c4cc(OC)c(OC)c(OC)c4)C3)C/C(=C\c3cc(OC)c(OC)c(OC)c3)C2=O)cc(OC)c1OC` [Compound 3g], in [1] (HL-60, HSC-2, HSC-3, HSC-4), the “CC50 values in all four bioassays (range in words)” value is “double-digit nanomolar range”. The 50% cytotoxic concentration (CC50) was found to be 0.04 µM in series [1]; 0.038 ± 0.009 µM in series [2]; 0.035 ± 0.005 µM in [4]; 0.03 ± 0.0002 µM in series [7]; 0.065 ± 0.016 µM in series [10]. Besides, in series [1], the “AVE SI” value stood at 4.92. Also, in series [1], the “PSE (potency-selectivity expression)” value is reported as over 100. Also, the “SI (selectivity index) HSC-4” value in series [2] worked out at 5.00. Also, the CC50 at 48 h in series [3] came out at 0.093 ± 0.02 µM; in [5], 0.19 µM; in series [8], 0.18 ± 0.03 µM; in series [9] it was 0.3 ± 0.047 µM. The “SI (selectivity index) HSC-3” value in [4] came to 5.43. The “SI (selectivity index) HL-60” value in series [7] came out at 6.33. In addition, the “SI (selectivity index) HSC-2” value in series [10] turned out to be 2.92.
`O=C1/C(=C/c2ccccc2)CN(CCCN2C/C(=C\c3ccccc3)C(=O)/C(=C/c3ccccc3)C2)C/C1=C\c1ccccc1` [Compound 4]: the CC50 in series [1] turned out to be 0.21 µM; in series [2], 0.083 ± 0.021 µM; in [4] it was 0.35 ± 0.11 µM; in series [7], 0.18 ± 0.011 µM; in series [10], 0.21 ± 0.032 µM. Moreover, the “AVE SI” value in series [1] is 25.2. In [1], the “PSE (potency-selectivity expression)” value is listed as over 100. Besides, in series [2], the “SI (selectivity index) HSC-4” value is reported as 48.2. Further, the CC50 at 48 h in series [3] worked out at 3 ± 0.21 µM; in series [5], 4 µM; in series [8] it was 3.7 ± 2 µM; in series [9], 5.3 ± 0.61 µM. For the same molecule, the “SI (selectivity index) HSC-3” value in series [4] stood at 11.4. In series [7], the “SI (selectivity index) HL-60” value was 22.2. In series [10], the “SI (selectivity index) HSC-2” value is given as 19.1.
Take `COc1cc(/C=C/C(=O)CC(=O)/C=C/c2ccc(O)c(OC)c2)ccc1O` [Curcumin, reference compound]: the half-maximal cytotoxic concentration (CC50) in series [1] was 12 µM; in series [2], 14 ± 3.2 µM; in series [4], 16 ± 2.7 µM; in series [7], 7.8 ± 0.58 µM; in series [10] it was 10 ± 0.81 µM. Further, the “AVE SI” value in series [1] worked out at 4.10. The “SI (selectivity index) HSC-4” value in [2] was determined as 3.24. The cytotoxic concentration (CC50) at 48 h in series [3] worked out at 70 ± 12 µM; in [5] it was 45.3 µM; in series [8], 34 ± 6.8 µM; in series [9], 32 ± 6.4 µM. In addition, the “SI (selectivity index) HSC-3” value in series [4] came to 2.83. For the same molecule, the “SI (selectivity index) HL-60” value in series [7] is given as 5.81. The “SI (selectivity index) HSC-2” value in [10] is given as 4.53.
